Assay results published in PMC8587999, “Assessment of the Activity of Decoquinate and Its Quinoline-O-Carbamate Derivatives against Toxoplasma gondii In Vitro and in Pregnant Mice Infected with T. gondii Oocysts” (Molecules, 2021).
In brackets after ≈: the same amount, converted by molar mass. Read-outs that look alike come from different tables or passages of the source.

Key:
[1] = parameters: method as in PMID 32626086; details: cited from earlier work
T. gondii = details: cited from earlier work
[2] = system: T. gondii Me49 tachyzoites; assay: Long-term drug treatment of TgMe49-infected HFF in vitro; format: cell-based, Toxoplasma gondii
Method: HFF cytotoxicity assessments and IC50 determinations using cultures of Tg-β-gal tachyzoites grown in HFF were carried out as described previously. IC50 values were calculated with the logit-log-transformation of the relative growth and subsequent regression analysis was done with the corresponding software tool contained in Microsoft Excel software package (Microsoft, Seattle, WA). For the long-term treatments, HFF grown in T25 culture flasks were infected with 5 × 10^5 TgMe49 tachyzoites, and after 4.5 h 0.5 μM DCQ, RMB054 or RMB060 were added. Infected cultures treated with the highest corresponding concentration of DMSO (0.5%) served as controls. […] Cultures were inspected by light microscopy on a daily basis. On days 3, 6, 9, 13, 16, 20 and 24, the compound-containing medium was removed, and parasites were maintained without drug pressure until host cell lysis (plaque formation) was evident.

[3] = Pregnancy interference test in non-infected BALB/c mice; format: in vivo; details: for No. of Non-Pregnant Mice/No. of Mice / No. of Pregnant Mice/No. of Mice: non-infected BALB/c; for Litter Size: total pups per group
Method: Eighteen female and 9 male BALB/c mice, all 8 weeks of age, were used. The females were oestrus-synchronized for 3 days by the Whitten effect and were mated by housing 2 females and 1 male for 72 h in one cage. Males were removed after mating and females were randomly assigned to 3 experimental groups of 6 mice each: DCQ; RMB060; placebo. On days 9–13 post-mating, DCQ and RMB060 were supplied at 10 mg/kg/day in 100 μL corn oil by oral gavage. The placebo group only received corn oil. Mice were observed and weighed on several days and on day 18, post-mating pregnant females were separated into single cages. […] Dams and pups were observed daily and data on fertility, litter size, neonatal and postnatal mortality was recorded for the following 2 weeks. All mice were euthanized in a chamber by isoflurane/CO2 inhalation.

[4] = system: T. gondii Me49 tachyzoites; assay: TEM of T. gondii Me49 tachyzoites cultured in HFF under drug treatment; format: cell-based, Toxoplasma gondii
Method: For transmission electron microscopy (TEM), HFF grown in T25 culture flasks were infected with 10^7 TgMe49 tachyzoites and incubated for 3 h at 37 °C and 5% CO2. Subsequently, cultures were exposed to continuous treatment of 6h, 24 h, 48 h, and 72 h with 0.5 μM DCQ, RMB054 or RMB060, and 1 µM RMB055. Infected cultures treated with DMSO served as controls. TEM preparations were performed as described earlier. Samples were observed on a Philips CM 12 (Philips Research, Eindhoven, Holland) or a FEI Tecnai Spirit BioTwin TEM (TESCAN GmbH, Dormund, Germany), both operating at 80 kV.

[5] = system: human foreskin fibroblasts (HFF); assay: HFF cytotoxicity assessment; format: cell-based; details: for IC50: Homo sapiens, Fibroblast, uninfected HFF, no decline in viability over the concentration range
Method: (§1) HFF cytotoxicity assessments and IC50 determinations using cultures of Tg-β-gal tachyzoites grown in HFF were carried out as described previously. IC50 values were calculated with the logit-log-transformation of the relative growth and subsequent regression analysis was done with the corresponding software tool contained in Microsoft Excel software package (Microsoft, Seattle, WA). For the long-term treatments, HFF grown in T25 culture flasks were infected with 5 × 10^5 TgMe49 tachyzoites, and after 4.5 h 0.5 μM DCQ, RMB054 or RMB060 were added. Infected cultures treated with the highest corresponding concentration of DMSO (0.5%) served as controls. Prolonged treatments for up to 24 days were carried out, with the addition of fresh medium containing the respective drug every 3–4 days. Cultures were inspected by light microscopy on a daily basis. On days 3, 6, 9, 13, 16, 20 and 24, the compound-containing medium was removed, and parasites were maintained without drug pressure until host cell lysis (plaque formation) was evident.

[6] = system: T. gondii β-gal tachyzoites; assay: IC50 determination with T. gondii β-gal tachyzoites grown in HFF monolayers; format: cell-based, Toxoplasma gondii; details: for IC50: Toxoplasma gondii
Method: The efficacy of DCQ in vitro was determined using T. gondii β-gal constitutively expressing β-galactosidase grown in HFF monolayers. […] The low IC50 values and the low degree of cytotoxicity against HFF host cells in vitro encouraged us to examine the efficacy of oral treatment of CD1 mice infected with T. gondii oocysts with DCQ at 10 mg/kg/day for 5 days.
Due to the negative effects of treatment with DCQ, we investigated the efficacy in vitro of the three DCQ derivatives RMB054, RMB055 and RMB060 (Figure 1) in comparison to DCQ. Different concentrations of DCQ and the derivatives in DMSO were added to HFF either concomitantly with infection of T. gondii-β-gal tachyzoites, or 3 h after infection. […] The corresponding dose-response curves are shown in Supplementary Materials Figure S1. The viability of uninfected HFF was not impaired by the compounds up to concentrations of 5 µM (DCQ and RMB054) or 10 µM (RMB055, RMB060) (Table 1).
as §1

[7] = system: BAG1 (bradyzoite antigen 1) expression in T. gondii Me49; assay: Immunofluorescence staining for BAG1 expression in TgMe49-infected HFF; format: cell-based, Toxoplasma gondii; details: treatment for 48 h
Method: For immunofluorescence microscopy, 4 × 10^4 HFF were grown on glass coverslips for 24 h to form a sub-confluent monolayer and were exposed to 1.2 × 10^5 TgMe49 tachyzoites during 4 h at 37 °C and 5% CO2. The medium was replaced and supplemented with 20 nM DCQ and RMB060, or medium containing DMSO as control. Cultures infected with TgPgSp1 (low passage number) served as positive control for BAG1 (bradyzoite antigen 1) expression. Infected cells were cultured for 16 h, 24 h, and 48 h and fixed and labelled for immunofluorescence staining as described previously. A polyclonal rabbit anti-BAG1 antiserum was applied at 1:200 dilution, followed by a goat-anti-rabbit fluorescein-isothiocyanate conjugate (1:300), the monoclonal mouse anti-TgSAG1 antibody was diluted (1:100), followed by goat anti-mouse conjugated to tetramethylrhodamine-isothiocyanate at 1:300. Subsequently, samples were mounted in H-1200 Vectashield mounting medium (Vector Laboratories, Burlingame, CA, USA) containing 4,6-diamidino-2-phenylindole and were viewed on a Nikon E80i fluorescence microscope (Tokyo, Japan). Processing of images was performed using Openlab 5.5.2 (Improvision, PerkinElmer, Waltham, MA, USA) and the ImageJ software, version 1.53 m.

[8] = 10 mg/kg/day oral, days 9–13 post-mating
[9] = HFF vs T. gondii, compound applied prior to / concomitantly with infection
[10] = Tg-β-gal in HFF, compound added 3 h post-infection, [upper, lower limit of 95% CI], read-out: IC50 T. gondii (nM) [LS, LI] Compound Added 3 h Post-infection
[11] = Tg-β-gal in HFF, compound added prior to / concomitantly with infection, [upper, lower limit of 95% CI], read-out: IC50 T. gondii (nM) [LS, LI] Compound Added Prior to Infection
[12] = short-term growth assays, added with infection or 3 h after, read-out: IC50 T. gondii, range depending on the time point of initiation of treatment

SMILES	Interference in pregnancy [3, 8]	No. of Non-Pregnant Mice/No. of Mice [3, 8]	No. of Pregnant Mice/No. of Mice [3, 8]	Litter Size [3, 8]	Concentration up to which viability of uninfected HFF was not impaired [5]	IC50 [5]	Selectivity Index [6, 9]	IC50 [6, 10]	IC50 [6, 11]	IC50 [6, 12]	Expression of the bradyzoite marker BAG1 [7]	other results
CCCCCCCCCCOc1cc2c(O)c(C(=O)OCC)cnc2cc1OCC [DCQ, ethyl 6-decyloxy-7-ethoxy-4-oxo-1H-quinoline-3-carboxylate]	strong interference in pregnancy outcome	4/6	2/6	7	5 µM	> 5000 nM	>4545	4.7 nM	1.1 nM	1.1 to 4.7 nM	induced the expression of BAG1	aqueous solubility [1]: 0.06 µg/mL (≈ 0.144 µM); Effect of treatment of infected cultures, T. gondii RH strain (T. gondii; 240 nM): tissue cyst formation; IC50 (T. gondii; read-out: IC50, inhibition of T. gondii proliferation in vitro): 12 nM; Parasiticidal effect after long-term treatment ([2]; 500 nM, 52 days): no parasiticidal effect; Parasiticidal effect in long-term treatment assays ([2]; up to 500 nM per day for 24 days): not parasiticidal; Neonatal Mortality ([3]; female, BALB/c, mouse, in vivo, po, 10 mg/kg/day): 0/7; Ultrastructural alterations of the parasite mitochondrion (TEM) ([4]; within 24 h): distinct alterations in the parasite mitochondrion
CCCCCCCCCCOc1cc2c(OC(=O)N3CCN(S(C)(=O)=O)C3=O)c(C(=O)OCC)cnc2cc1OCC [RMB060]	only minor interference in pregnancy	2/6	4/6	27	10 µM	> 10000 nM	>142,857	0.7 nM	0.07 nM	0.07 to 0.7 nM	expression of the bradyzoite marker BAG1 in the cytoplasm of some, but not all, parasites	IC50 (T. gondii; read-out: previously reported IC50 against T. gondii): 1.1 nM; Killing of tachyzoites after long-term exposure ([2]; 300 nM for 52 days): did not result in the complete killing of all tachyzoites; Concentration to which tachyzoites adapted, fold the IC50 ([2]; exposure for longer timespans, parasites resumed proliferation and formed lysis plaques): up to 4286 fold; Postnatal Mortality [3, 8]: 0/24; Neonatal Mortality ([3]; first 2 days post-partum, 10 mg/kg/day oral, days 9–13 post-mating): 3/27; Ultrastructural alterations of the parasite mitochondrion (TEM) ([4]; 500 nM for 6 h, treatment started 3 h after infection): mitochondrial matrix had a less electron dense appearance and dissolved cristae became evident; Concentration that caused a complete growth inhibition in dose response assays ([6]; T. gondii tachyzoites in HFF): 500 nM; Selectivity Index ([6]; compound added to intracellular parasites at 3 h post-infection): > 14,000
